Measured values from patent US4015974A, “Amido phosphorothiolates” (priority 1972, dated 1977).
Converted amounts (≈) assume the structure as drawn.

Assays:
Assay type in all cases: in vivo
[1] = test system: barnyard grass (Echinochloa crus-galli); experiment: Pre-emergence application, herbicidal effect on barnyard grass (Table 1); set-up: key: 0: not damaged; 5: completely killed; conditions: 20 days after application, score 0-5
Method in brief: (§1)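 Soil treatment after sowing, pre-emergence; wettable powder formulations diluted with water. Greenhouse, 20 d. Score 0 = no damage, 5 = complete kill.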

[2] = test system: large crabgrass (Digitaria sanguinalis); experiment: Pre-emergence application, herbicidal effect on large crabgrass (Table 1); set-up: key: 0: not damaged; 5: completely killed; conditions: 20 days after application, score 0-5
Method in brief: as §1

radish = experiment: Pre-emergence application, herbicidal effect on radish (Table 1); set-up: key: 0: not damaged; 5: completely killed; conditions: 20 days after application, score 0-5
Method in brief: as §1

[3] = test system: redroot pigweed (Amaranthus retroflexus); experiment: Pre-emergence application, herbicidal effect on redroot pigweed (Table 1); set-up: key: 0: not damaged; 5: completely killed; conditions: 20 days after application, score 0-5
Method in brief: as §1

[4] = test system: common purslane (Portulaca oleracea); experiment: Pre-emergence application, herbicidal effect on common purslane (Table 1); set-up: key: 0: not damaged; 5: completely killed; conditions: 20 days after application, score 0-5
Method in brief: as §1

[5] = test system: common lambsquarter (Chenopodium album); experiment: Pre-emergence application, herbicidal effect on common lambsquarter (Table 1); set-up: key: 0: not damaged; 5: completely killed; conditions: 20 days after application, score 0-5
Method in brief: as §1

rice = experiment: Water application, phytotoxicity on rice (Table 2); set-up: key: 0: no effect; 1: very slightly affected; 2: slightly affected; 3: moderately affected; 4: considerably affected; 5: completely killed; conditions: 25 days, score 0-5
Method in brief: (§2)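 Paddy-soil pots flooded to paddy conditions; rice transplanted at 3-leaf stage, barnyard grass sown, broad-leaved weeds germinating spontaneously. Test compounds applied as wettable powder to soil under flooded water. Herbicidal effect and rice phytotoxicity scored 0–5 at 25 days after application.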

[6] = test system: carmine mite (Tetranychus telavius); experiment: Lethal effect on carmine mite, leaf dipping (Table 3); conditions: foliar, 48 h
Method: A large number of carmine mite adult were made parasitic on leaves of potted kidney beans at a 2-leaves stage which had elapsed 10 days after sowing. The leaves of kidney bean on which carmine mites had been made parasitic were dipped for 1 minute in each aqueous solution of the present compounds of wettable powder type. Water was given to the leaves not to kill them, and after 48 hours the death and alive were observed microscopically to calculate the mortality. Values of LC50 were obtained from the mortality.

[7] = test system: rice stem borer (Chilo suppressalis); experiment: Lethal effect on rice stem borer (Table 6); conditions: 50 % emulsifiable concentrate, 1000 fold dilute solution, 4 days after application
Description: Eggs just before hatch of the rice stem borer were applied in a ratio of 100/pot near the root of rice plants grown up into the tillering stage in an […] Wagner's pot. After eggs were hatched and the larvae entered into stems of rice plants, an 1000 fold dilute solution of each 50 % emulsifiable concentrates of the present compounds was applied by means of a turn table.

nematode = experiment: Effect on nematode (Table 7); set-up: tested at 500 ppm; conditions: 500 p.p.m., 24 hours
Method: 0.5 ml. of a nematode-containing aqueous solution separated from food according to Baermann's method was placed in a test tube with ground stopper containing 0.5 ml. of an aqueous dilute solution of each emulsifiable concentrates of the present compounds. The concentration of the active ingredient in the mixture was adjusted to 500 p.p.m. After 24 hours, the death and alive were observed microscopically to calculate the mortality.

[8] = test system: barnyard grass (Echinochloa crus-galli); experiment: Water application, herbicidal effect on barnyard grass (Table 2); set-up: key: 0: not damaged; 5: completely killed; conditions: 25 days, score 0-5
Method in brief: as §2

[9] = test system: broad-leaved weeds, e.g., monochoria, false pimpernel and toothcup; experiment: Water application, herbicidal effect on broad-leaved weeds (Table 2); set-up: key: 0: not damaged; 5: completely killed; conditions: 25 days, score 0-5
Method in brief: as §2

[10] = test system: broad-leaved weeds, e.g., monochoria, false pimpernel and toothcup; experiment: as above; set-up: key: 0: no effect; 1: very slightly affected; 2: slightly affected; 3: moderately affected; 4: considerably affected; 5: completely killed; conditions: 10 g/a, 25 days, score 0-5
Description: Wagner pots of 14 cm. in diameter, which had been packed with 1.5 kg. of paddy field soil, were brought into the state of paddy fields. To the pots were transplanted rice seedlings at the 3-leave stage. Further, seeds of barnyard grass (Echinochloa crus-galli) were sowed in the pots and required amounts of test compounds were applied to the soil under water lodged condition. 25 days after application, the degrees of herbicidal activity and phytotoxity were investigated on above-mentioned plants which had been transplanted and sowed, and on broad-leaved weeds, e.g., monochoria (Monochoria viaginalis Presl.), false pimpernel (Linderna pyxidaria) and toothcup (Rotala indica Koehue), which had been spontaneously germinated. The test compounds were used in the form of wettable powder. The herbicidal effects and the phytotoxity were evaluated as follows by the numerals ranging from 0 to 5.

Compound | Herbicidal effect, barnyard grass ([1]; 10 g./a.) | Herbicidal effect, barnyard grass ([1]; 20 g./a.) | Herbicidal effect, barnyard grass ([1]; 40 g./a.) | Herbicidal effect, large crabgrass ([2]; 10 g./a.) | Herbicidal effect, large crabgrass ([2]; 20 g./a.) | Herbicidal effect, large crabgrass ([2]; 40 g./a.) | Herbicidal effect, radish (radish; 10 g./a.) | Herbicidal effect, radish (radish; 20 g./a.) | Herbicidal effect, radish (radish; 40 g./a.) | Herbicidal effect, redroot pigweed ([3]; 10 g./a.) | Herbicidal effect, redroot pigweed ([3]; 20 g./a.) | Herbicidal effect, redroot pigweed ([3]; 40 g./a.) | Herbicidal effect, common purslane ([4]; 10 g./a.) | Herbicidal effect, common purslane ([4]; 20 g./a.) | Herbicidal effect, common purslane ([4]; 40 g./a.) | Herbicidal effect, common lambsquarter ([5]; 10 g./a.) | Herbicidal effect, common lambsquarter ([5]; 20 g./a.) | Herbicidal effect, common lambsquarter ([5]; 40 g./a.) | Phytotoxicity on rice (rice; 10 g/a) | Phytotoxicity on rice (rice; 20 g/a) | also measured
CCCCSP(=O)(OCC)SCC(=O)N1CCCCC1C (stereo not shown) [Compound 4] | 4 | 5 | 5 | 5 | 5 | 5 | 0 | 0 | 0 | 4 | 4 | 4 | 4 | 4 | 5 | 4 | 4 | 5 | 0 | 0 | Phytotoxicity on rice (rice; 40 g/a): 0; LC50 [6]: 11.4 µg/mL (≈ 32.2 µM); Mortality [7]: 97.6%; Mortality (nematode): 100%; Herbicidal effects, barnyard grass ([8]; 10 g/a): 5; Herbicidal effects, barnyard grass ([8]; 20 g/a): 5; Herbicidal effects, barnyard grass ([8]; 40 g/a): 5; Herbicidal effects, broad-leaved weeds ([9]; 20 g/a): 5; Herbicidal effects, broad-leaved weeds ([9]; 40 g/a): 5; Herbicidal effects, broad-leaved weeds [10]: 4
C=C(Cl)CSP(=O)(OCC)SCC(=O)N1CCCCC1C (stereo not shown) [Compound 9] | 5 | 5 | 5 | 5 | 5 | 5 | 0 | 0 | 0 | 4 | 5 | 5 | 5 | 5 | 5 | 4 | 5 | 5 | 0 | 0 | Phytotoxicity on rice (rice; 40 g/a): 0; Mortality [7]: 100%; Mortality (nematode): 100%; Herbicidal effects, barnyard grass ([8]; 10 g/a): 5; Herbicidal effects, barnyard grass ([8]; 20 g/a): 5; Herbicidal effects, barnyard grass ([8]; 40 g/a): 5; Herbicidal effects, broad-leaved weeds ([9]; 10 g/a): 5; Herbicidal effects, broad-leaved weeds ([9]; 20 g/a): 5; Herbicidal effects, broad-leaved weeds ([9]; 40 g/a): 5
C=CCSP(=O)(OCCC)SCC(=O)N1CCC(C)CC1 (stereo not shown) [Compound 18] | 4 | 5 | 5 | 5 | 5 | 5 | 0 | 0 | 0 | 4 | 4 | 5 | 4 | 4 | 5 | 4 | 5 | 5 | 0 | 0 | Phytotoxicity on rice (rice; 40 g/a): 0; Mortality [7]: 76.4%; Herbicidal effects, barnyard grass ([8]; 10 g/a): 5; Herbicidal effects, barnyard grass ([8]; 20 g/a): 5; Herbicidal effects, barnyard grass ([8]; 40 g/a): 5; Herbicidal effects, broad-leaved weeds ([9]; 10 g/a): 5; Herbicidal effects, broad-leaved weeds ([9]; 20 g/a): 5; Herbicidal effects, broad-leaved weeds ([9]; 40 g/a): 5
CCCCSP(=O)(OCC)SCC(=O)N1CCC(C)CC1 (stereo not shown) [Compound 24] | 4 | 5 | 5 | 4 | 5 | 5 | 0 | 0 | 0 | 3 | 4 | 4 | 4 | 4 | 4 | 3 | 4 | 4 | 0 | 0 | Phytotoxicity on rice (rice; 40 g/a): 0; Mortality [7]: 83.0%; Herbicidal effects, barnyard grass ([8]; 10 g/a): 5; Herbicidal effects, barnyard grass ([8]; 20 g/a): 5; Herbicidal effects, barnyard grass ([8]; 40 g/a): 5; Herbicidal effects, broad-leaved weeds ([9]; 20 g/a): 5; Herbicidal effects, broad-leaved weeds ([9]; 40 g/a): 5; Herbicidal effects, broad-leaved weeds [10]: 4
